The text below walks through data of patent publication US9861679B2, “Method of treating cancer” (priority 2014, dated 2018).

The subject of data set [1] is Bone Marrow Derived Macrophages (BMDM). Briefly: BMDM cell viability (CellTiter-Glo) after SMAC mimetic Compound A ± p38 or MK2 inhibitor. Format: cell-based, mouse. The conditions noted are these: inhibitor 30 min then 500 nM Compound A, 24 h, FIG. 1C. The procedure:
FIG. 1: p38 inhibitors increase TNFα production and cell death induced by SMAC mimetics. A. Bone Marrow Derived Macrophages (BMDM) were pretreated ±1 μM of the indicated p38 inhibitors for 30 min then treated with 500 nM of SMAC mimetic Compound A (CompA) for 24 h. TNFα production was measured by ELISA of supernatants. B. BMDM were pretreated 500 nM of SMAC mimetic Compound A, GT13072 or birinapant ±1 μM of LY2228820. TNFα production was measured by ELISA of supernatants. N=3 biological repeats and error bars are SEM. C. BMDM were pretreated±the indicated dose of MK2 inhibitor PF-3644022 and the p38 inhibitor LY2228820, VX-702, TAK-715 or VX-745 for 30 min then treated with 500 nM of SMAC mimetic Compound A. Cell viability was measured after 24 h of treatment using CellTiter-Glo® (CTG) reagent. N=3 biological repeats and error bars are SEM.
BMDMs from C56/B16, p38α^LysMCre or Mk2^−/− were cultured for 6 days in DMEM+10% FBS (v/v)+20% L929 mouse fibroblasts (a source of macrophage colony stimulating factor), plated and assayed the following day. BMDMs cells were seeded and assayed in the presence of L929 conditioned medium. AML cells were cultured in IMDM+10% FBS (v/v)+2.5 ng/ml of IL-3. NCI-H929 cells were cultured in RPMI+10% FBS (v/v). Cell suspension from breast ER+ patient derived tumours was cultured in mammosphere media. After treatment with SMAC mimetic with or without kinases inhibitors cell viability was measured by staining with propidium iodide (2 μg/mL) or by using CellTiter-Glo® (Promega).
(In general: ATP-based viability assays read luminescence as a measure of living cells.)

The test system is the same in data set [2]. Nature of the data set: TNFα production by ELISA in BMDM treated with SMAC mimetic ± p38 inhibitors (kinase inhibitors screen). It is filed as cell-based, mouse. The conditions noted are these: 500 nM CompA, GT13072 or birinapant ± 1 μM LY2228820, FIG. 1B. The protocol:
FIG. 1: p38 inhibitors increase TNFα production and cell death induced by SMAC mimetics. A. Bone Marrow Derived Macrophages (BMDM) were pretreated ±1 μM of the indicated p38 inhibitors for 30 min then treated with 500 nM of SMAC mimetic Compound A (CompA) for 24 h. TNFα production was measured by ELISA of supernatants. B. BMDM were pretreated 500 nM of SMAC mimetic Compound A, GT13072 or birinapant ±1 μM of LY2228820. TNFα production was measured by ELISA of supernatants. N=3 biological repeats and error bars are SEM. C. BMDM were pretreated±the indicated dose of MK2 inhibitor PF-3644022 and the p38 inhibitor LY2228820, VX-702, TAK-715 or VX-745 for 30 min then treated with 500 nM of SMAC mimetic Compound A. Cell viability was measured after 24 h of treatment using CellTiter-Glo® (CTG) reagent. N=3 biological repeats and error bars are SEM. BMDMs from C56/B16, p38α^LysMCre or Mk2^−/− were cultured for 6 days in DMEM+10% FBS (v/v)+20% L929 mouse fibroblasts (a source of macrophage colony stimulating factor), plated and assayed the following day. BMDMs cells were seeded and assayed in the presence of L929 conditioned medium. AML cells were cultured in IMDM+10% FBS (v/v)+2.5 ng/ml of IL-3. […] After treatment with SMAC mimetic with or without kinases inhibitors cell viability was measured by staining with propidium iodide (2 μg/mL) or by using CellTiter-Glo® (Promega). […]

A further data set relates to C57BL/6 mice. Nature of the data set: Tolerability of SMAC mimetic plus p38 inhibitor in non tumour-bearing mice. Format: in vivo. The conditions noted are these: LY2228820 15 mg/kg combined with GT13072 5 mg/kg; FIG. 7C. The protocol:
FIG. 7: Mice tolerate administration of birinapant plus p38 inhibitor. A. Mononuclear cells isolated from healthy donor by Ficoll sedimentation were treated for 48 h with indicated drugs. CD34^+ cell death was measured by staining with PI and flow cytometry. For each donor sample, graphs show mean of at least n=2 technical replicates across n=2-5 independent experiments. B and C. C57BL/6 mice were intra-peritoneally injected with vehicle (captisol 6%) or birinapant (B) or GT13072 (C) or LY2228820 or combination of LY2228820 and SM at indicated concentration. Mice received 8 injections twice a week over 4 weeks. Mice were euthanised 2 weeks after the treatment stopped. Graphs show organs, body weights and blood cell populations with 6 mice/group (B), 4 mice/group (C). Error bars are SEM.
To assess the safety of SMAC mimetic plus p38 inhibitor C57BL6 mice were injected by intra-peritoneal route twice a week for 4 weeks with either vehicle (6% Captisol) or 15 mg/kg of LY222820 or 5 mg/kg birinapant±15 mg/kg LY2228820, or 10 mg/kg birinapant±15 mg/kg LY2228820. Another cohort received either vehicle or 5 mg/kg of GT13072, or 15 mg/kg of LY222820 or combination.
200 μL of blood was collected from the retro-orbital plexus into tubes containing potassium ethylenediaminetetraacetic acid (Sarstedt) and analyzed in an Advia 2120 automated hematologic analyzer (Bayer).

Data set [3] deals with low- and intermediate-1-risk Myelodysplastic syndromes. The conditions noted are these: cited from earlier work.
Data set [4] has as its system MLL-ENL-luciferase leukemic cells. Nature of the data set: Anti-tumour efficacy in mice bearing MLL-ENL-luciferase leukemia. Format: in vivo, mouse. The conditions noted are these: mice bearing MLLENL-Luc, after one week of treatment; birinapant 5 mg/kg, LY2228820 10 mg/kg i.p. twice a week; FIG. 8A. The procedure:
FIG. 8: Combination of birinapant with p38 inhibitor decreases AML tumor burden. Mice bearing MLLENL-luciferase (A and B) or MLL-AF9 (C) leukemic cells received i.p injections of birinapant (5 mg/kg), LY2228820 (10 mg/kg) or the combined drugs twice a week for 4 weeks. A. Representative data of in vivo imaging of leukaemia progression in mice bearing MLL-ENL-luciferase. B. Kaplan-Meier survival curve of mice bearing MLL-ENL-luciferase and treated or not with birinapant, LY222820 or combined therapy. C. Kaplan-Meier survival curve of mice bearing MLL-AF9 and treated or not with birinapant, LY222820 or combined therapy.
To assess the anti-tumour efficacy of SMAC mimetic plus p38 inhibitor C57BL6 Albinos mice were injected by intra-venous route with 5·10^5 MLLENLluc. Luciferase activity was measured at D4 and D8 after leukemic cells injection to ensure engraftment. Treatment started at D8. Mice were treated twice a week for 4 weeks with either vehicle (6% Captisol), 5 mg/kg of Birinapant, or 10 mg/kg of LY222820 or combination. Mice were monitored for leukemia progression once a week using the in vivo bioluminescent imaging. […]
To assess the therapeutic efficacy of the combination multiple primary MLL-ENL and MLL-AF9 leukemias were transplanted and the secondary recipient mice were treated with the different drugs. […] The engraftment and trafficking were evaluated by in vivo bioluminescent imaging. […]

In data set [5] the test system is human AML patient samples. Briefly: In vitro response of human AML patient samples to Birinapant. Format: cell-based. The conditions noted are these: single agent.
In data set [6] the test system is advanced solid tumours and lymphoma. The conditions noted are these: intravenous administration, Phase I, patients; cited from earlier work.
[7] abbreviates: oral administration, Phase I/II, patients.

SMILES strings stand for the structures.

Turning to `NC(=O)c1ccc(N(C(N)=O)c2c(F)cccc2F)nc1-c1ccc(F)cc1F` [VX-702], in data set [1], the “cell death induced by SMAC mimetics” value is “dramatically increased”.
Regarding `CC(C)(C)Cn1c(N)nc2ccc(-c3[nH]c(C(C)(C)C)nc3-c3ccc(F)cc3)nc21` [LY2228820], in data set [1], the “cell death induced by SMAC mimetics” value is given as “dramatically increased”. In data set [2], the “TNF production of three different smac-mimetics” value was “increased TNF production”. In addition, the “effect on splenomegaly induced by GT13072” value in the data set with C57BL/6 mice is “did not even exacerbate”.
`Cc1ccc(-c2ccc3c(ccc4sc5c(c43)NC[C@@H](C)NC5=O)n2)cn1` [PF-3644022]: in data set [1], the “cell death induced by SMAC mimetics” value is listed as “dramatically increased”.
Consider `C[C@@H]1CN(Cc2ccc(F)cc2)[C@@H](C)CN1C(=O)c1cc2c(C(=O)C(=O)N(C)C)cn(C)c2cc1Cl` [Talmapimod], for which, in data set [3] (setting [7]), the complete remission entry was “only one patient achieved a complete remission” and the tolerability entry is reported as “well tolerated”. For the same compound, the “duration of complete remission” value in data set [3] (the one patient with complete remission) is reported as “more than 2 years”.
Take `CCc1nc(-c2cccc(C)c2)c(-c2ccnc(NC(=O)c3ccccc3)c2)s1` [TAK-715]: in data set [1], the “cell death induced by SMAC mimetics” value was “dramatically increased”.
Same read-out and setting: then `O=c1ncn2nc(Sc3ccc(F)cc3F)ccc2c1-c1c(Cl)cccc1Cl` [VX-745], with “dramatically increased”.
In the case of `CC[C@H](NC(=O)[C@H](C)NC)C(=O)N1C[C@@H](O)C[C@H]1Cc1c(-c2[nH]c3cc(F)ccc3c2C[C@@H]2C[C@H](O)CN2C(=O)[C@H](CC)NC(=O)[C@H](C)NC)[nH]c2cc(F)ccc12` [Birinapant], in data set [4], the “response to treatment (bioluminescent imaging)” value is reported as “did not”. Further, in data set [5], the “response to Birinapant treatment in vitro” value is reported as “some human AML patient samples did not respond”. In addition, in data set [6], the anti-tumour activity entry is recorded as “evidence of anti-tumour activity” and the tolerability entry is “well tolerated with no dose-limiting toxicities”.
